Data from patent publication US9216157B2, “Chewing gum in the form of multi-layer tablets” (Jagotec AG, priority 2003, dated 2015).

Assays:
[1] = Evaluation of release of active component in vivo (chewing by volunteers, residue analysed); set-up: species or system human; settings: for Caffeine released in vivo (average): average of 3 volunteers
Description: To establish the release of active component from the chewing gum, the tablets were tested by a panel of 3 volunteers. For each test, the volunteer was asked to chew one piece of gum for a set time. After that time the gum was ground, and the active component content analysed. The in vivo tests were conducted with the following chewing times: 5, 10, 15, 20, 30 and 40 minutes. The gum residue was weighed, frozen and finely ground. An exactly weighed amount of this powder was then subjected to the dissolution test according to the American Pharmacopoeia, using 1000 mL of water at 37° as dissolving fluid, and a paddle at 100 rpm. The test was performed by the spectrophotometry method, operating at 273 nm. The amount of active component released in vivo was determined by subtracting the amount of caffeine in the residue from the amount present in the pharmaceutical form.

[2] = Dissolution test according to the American Pharmacopoeia (paddle, 100 rpm, 1000 mL water, 37°); assay type: physicochemical
Description: The tablets were then subjected to the dissolution test according to the American Pharmacopoeia method, using 1000 mL of water at 37° as dissolving fluid and a paddle at 100 rpm. The test was performed by the spectrophotometry method, operating at 280 nm.

[3] = Example 3 tablet, chewing time 5 minutes
[4] = Example 3 tablet, chewing time 10 minutes
[5] = Example 3 tablet, chewing time 15 minutes
[6] = Example 3 tablet, chewing time 20 minutes
[7] = Example 3 tablet, chewing time 30 minutes
[8] = Example 3 tablet, chewing time 40 minutes
[9] = Example 5 four-layer tablets (50 mg levodopa, 12.5 mg carbidopa), time 0 min
[10] = Example 5 four-layer tablets, time 5 min
[11] = Example 5 four-layer tablets, time 15 min
[12] = Example 5 four-layer tablets, time 20 min
[13] = Example 5 four-layer tablets, time 25 min
[14] = Example 5 four-layer tablets, time 30 min
[15] = Example 5 four-layer tablets, time 35 min
[16] = Example 5 four-layer tablets, time 40 min

Cn1c(=O)c2c(ncn2C)n(C)c1=O [Caffeine]
Caffeine released in vivo, Volunteer 2 [1, 3]: 77.02% | Caffeine released in vivo, Volunteer 3 [1, 3]: 75.07% | Caffeine released in vivo (average) [1, 3]: 74.54% | Caffeine released in vivo, Volunteer 1 [1, 4]: 86.03% | Caffeine released in vivo, Volunteer 2 [1, 4]: 83.66% | Caffeine released in vivo, Volunteer 3 [1, 4]: 84.94% | Caffeine released in vivo (average) [1, 4]: 84.88% | Caffeine released in vivo, Volunteer 1 [1, 5]: 90.18% | Caffeine released in vivo, Volunteer 2 [1, 5]: 90.97% | Caffeine released in vivo, Volunteer 3 [1, 5]: 91.07% | Caffeine released in vivo (average) [1, 5]: 90.74% | Caffeine released in vivo, Volunteer 1 [1, 6]: 89.45% | Caffeine released in vivo, Volunteer 2 [1, 6]: 91.58% | Caffeine released in vivo, Volunteer 3 [1, 6]: 89.61% | Caffeine released in vivo (average) [1, 6]: 90.21% | Caffeine released in vivo, Volunteer 1 [1, 7]: 93.92% | Caffeine released in vivo, Volunteer 2 [1, 7]: 92.25% | Caffeine released in vivo, Volunteer 3 [1, 7]: 92.49% | Caffeine released in vivo (average) [1, 7]: 92.89% | Caffeine released in vivo, Volunteer 1 [1, 8]: 92.79% | Caffeine released in vivo, Volunteer 2 [1, 8]: 93.34% | Caffeine released in vivo, Volunteer 3 [1, 8]: 92.34% | Caffeine released in vivo (average) [1, 8]: 92.82% | Caffeine released in vivo, Volunteer 1 ([1]; Example 3 three-layer chewing gum tablet, 10 mg caffeine, chewing time 5 minutes): 71.52%

C[C@@](Cc1ccc(O)c(O)c1)(NN)C(=O)O [carbidopa, Carbidopa]
percentage released by the tablets [2, 9]: 0.00% | percentage released by the tablets [2, 10]: 78.23% | percentage released by the tablets [2, 11]: 92.63% | percentage released by the tablets [2, 12]: 94.97% | percentage released by the tablets [2, 13]: 96.55% | percentage released by the tablets [2, 14]: 98.18% | percentage released by the tablets [2, 15]: 98.77% | percentage released by the tablets [2, 16]: 100.00%

N[C@@H](Cc1ccc(O)c(O)c1)C(=O)O [levodopa, Levodopa]
percentage released by the tablets [2, 9]: 0.00% | percentage released by the tablets [2, 10]: 63.52% | percentage released by the tablets [2, 11]: 90.00% | percentage released by the tablets [2, 12]: 92.47% | percentage released by the tablets [2, 13]: 94.04% | percentage released by the tablets [2, 14]: 94.90% | percentage released by the tablets [2, 15]: 95.66% | percentage released by the tablets [2, 16]: 96.28%
